In brackets after ≈: the same amount, converted by molar mass.
Tests used:
HEK293 [1] = assay: Cytotoxicity against HEK293 cells assessed as cell survival at 8 microg/ml by XTT assay; type: toxicity, cell-based; conditions: human, dose 8 µg/ml
Candida albicans [2] = assay: microbe, parasite or virus in culture; conditions: ATCC 64124, 48 h
Description: Synergistic antifungal activity against Candida albicans ATCC 64124 assessed as voriconazole MIC measured after 48 hrs by checkboard based microplate reader analysis

J774.A1 [3] = assay: Cytotoxicity against mouse J774.A1 cells assessed as cell survival up to 4 microg/ml by XTT assay; type: toxicity, cell-based; conditions: dose < 4 µg/ml
Candida albicans [4] = assay: Antifungal activity against Candida albicans ATCC MYA-1237 measured after 48 hrs by broth microdilution analysis; type: functional
Candida albicans [5] = assay: Additive antifungal activity against Candida albicans ATCC MYA-1237 assessed as fractional inhibitory concentration index measured for 72 hrs in presence of voriconazole; type: functional
Candida albicans [6] = assay: Synergistic antifungal activity against Candida albicans ATCC MYA-2876 assessed as voriconazole MIC measured after 48 hrs by checkboard based microplate reader analysis; type: functional
[7] = Cytotoxicity against human BEAS-2B cells assessed as cell survival by XTT assay; type: toxicity, cell-based; conditions: read-out: Activity
Candida albicans [8] = assay: microbe, parasite or virus in culture; conditions: ATCC 90819, 48 h
Description: Synergistic antifungal activity against Candida albicans ATCC 90819 assessed as voriconazole MIC measured after 48 hrs by checkboard based microplate reader analysis

HEK293 [9] = assay: Cytotoxicity against HEK293 cells assessed as cell survival up to 4 microg/ml by XTT assay; type: toxicity, cell-based; conditions: human, dose < 4 µg/ml
Candida albicans [10] = assay: Antifungal activity against Candida albicans ATCC 10231 measured after 48 hrs by broth microdilution analysis; type: functional
Candida albicans [11] = assay: Synergistic antifungal activity against Candida albicans ATCC MYA-2310 assessed as voriconazole MIC measured after 48 hrs by checkboard based microplate reader analysis; type: functional
Candida albicans [12] = assay: microbe, parasite or virus in culture; conditions: ATCC 10231, 48 h
Description: Synergistic antifungal activity against Candida albicans ATCC 10231 assessed as voriconazole MIC measured after 48 hrs by checkboard based microplate reader analysis

Candida albicans [13] = assay: Antifungal activity against Candida albicans ATCC 64124 measured after 48 hrs by broth microdilution analysis; type: functional
HEK293 [14] = assay: Cytotoxicity against HEK293 cells assessed as cell survival at 4 to 16 microg/ml by XTT assay; type: toxicity, cell-based; conditions: human, dose 4-16 µg/ml
Aspergillus terreus [15] = assay: Synergistic antifungal activity against Aspergillus terreus ATCC MYA-3633 assessed as voriconazole MIC measured after 48 hrs by checkboard based microplate reader analysis; type: functional
Nakaseomyces glabratus [16] = assay: Synergistic antifungal activity against Candida glabrata ATCC 2001 assessed as voriconazole MIC measured after 48 hrs by checkboard based microplate reader analysis; type: functional
[17] = Cytotoxicity against HEK293 cells assessed as cell survival by XTT assay; type: toxicity, cell-based; conditions: human, read-out: Activity
J774.A1 [18] = assay: Cytotoxicity against mouse J774.A1 cells assessed as cell survival at 4 to 16 microg/ml by XTT assay; type: toxicity, cell-based; conditions: dose 4-16 µg/ml
Nakaseomyces glabratus [19] = assay: Antifungal activity against Candida glabrata ATCC 2001 measured after 48 hrs by broth microdilution analysis; type: functional
Aspergillus terreus [20] = assay: Antifungal activity against Aspergillus terreus ATCC MYA-3633 measured after 48 hrs by broth microdilution analysis; type: functional
BEAS-2B [21] = assay: Cytotoxicity against human BEAS-2B cells assessed as cell survival up to 4 microg/ml by XTT assay; type: toxicity, cell-based; conditions: dose < 4 µg/ml
[22] = Cytotoxicity against mouse J774.A1 cells assessed as cell survival at 8 microg/ml by XTT assay; type: toxicity, cell-based; conditions: J774.A1 cells, at 8 µg/mL, read-out: Activity
Candida albicans [23] = assay: Antifungal activity against Candida albicans ATCC MYA-1003 measured after 48 hrs by broth microdilution analysis; type: functional
BEAS-2B [24] = assay: Cytotoxicity against human BEAS-2B cells assessed as cell survival at 4 to 16 microg/ml by XTT assay; type: toxicity, cell-based; conditions: dose 4-16 µg/ml
Candida albicans [25] = assay: Antifungal activity against Candida albicans ATCC MYA-2876 measured after 48 hrs by broth microdilution analysis; type: functional
Candida albicans [26] = assay: Synergistic antifungal activity against Candida albicans ATCC MYA-1003 assessed as voriconazole MIC measured after 48 hrs by checkboard based microplate reader analysis; type: functional
[27] = Cytotoxicity against mouse J774.A1 cells assessed as cell survival by XTT assay; type: toxicity, cell-based; conditions: read-out: Activity
Candida albicans [28] = assay: Antifungal activity against Candida albicans ATCC 90819 measured after 48 hrs by broth microdilution analysis; type: functional
Candida albicans [29] = assay: Synergistic antifungal activity against Candida albicans ATCC MYA-1237 assessed as voriconazole MIC measured after 48 hrs by checkboard based microplate reader analysis; type: functional

**Q.** Which Activity (HEK293 [1]) does the source give for `C[C@@H](c1ncncc1F)[C@](O)(Cn1cncn1)c1ccc(F)cc1F` [VORICONAZOLE] here?
**A.** Non-Toxic

**Q.** What about the MIC (Candida albicans [2]) of the same molecule?
**A.** 4 µg/mL (≈ 11.5 µM)

**Q.** What about the Activity (J774.A1 [3]) of the same molecule?
**A.** Non-Toxic

**Q.** And the MIC (Candida albicans [4])?
**A.** > 32 µg/mL

**Q.** What about the “fractional inhibitory concentration index (FICI)” value (Candida albicans [5]) of the same molecule?
**A.** 2

**Q.** What about the MIC (Candida albicans [6]) of the same molecule?
**A.** > 32 µg/mL

**Q.** And the viability [7]?
**A.** > 100%

**Q.** And the MIC (Candida albicans [8])?
**A.** 0.25 µg/mL (≈ 0.716 µM)

**Q.** And the Activity (HEK293 [9])?
**A.** Non-Toxic

**Q.** And the MIC (Candida albicans [10])?
**A.** 1 µg/mL (≈ 2.86 µM)

**Q.** What about the MIC (Candida albicans [11]) of the same molecule?
**A.** > 32 µg/mL

**Q.** And the MIC (Candida albicans [12])?
**A.** 0.25 µg/mL (≈ 0.716 µM)

**Q.** And the MIC (Candida albicans [13])?
**A.** > 32 µg/mL

**Q.** And the Activity (HEK293 [14])?
**A.** Non-Toxic

**Q.** And the MIC (Aspergillus terreus [15])?
**A.** 0.5 µg/mL

**Q.** What about the MIC (Nakaseomyces glabratus [16]) of the same molecule?
**A.** > 32 µg/mL

**Q.** And the viability [17]?
**A.** > 100%

**Q.** What about the Activity (J774.A1 [18]) of the same molecule?
**A.** Non-Toxic

**Q.** And the MIC (Nakaseomyces glabratus [19])?
**A.** > 32 µg/mL

**Q.** And the MIC (Aspergillus terreus [20])?
**A.** 0.25 µg/mL (≈ 0.716 µM)

**Q.** And the Activity (BEAS-2B [21])?
**A.** Non-Toxic

**Q.** And the viability at 8 microg/ml [22]?
**A.** 100%

**Q.** What about the MIC (Candida albicans [23]) of the same molecule?
**A.** > 32 µg/mL

**Q.** And the Activity (BEAS-2B [24])?
**A.** Non-Toxic

**Q.** And the MIC (Candida albicans [25])?
**A.** > 32 µg/mL

**Q.** And the MIC (Candida albicans [26])?
**A.** 2 µg/mL

**Q.** And the viability [27]?
**A.** > 100%

**Q.** What about the MIC (Candida albicans [28]) of the same molecule?
**A.** > 32 µg/mL

**Q.** What about the MIC (Candida albicans [29]) of the same molecule?
**A.** > 32 µg/mL

Reference: ChEMBL document CHEMBL5252541, “Repurposing antipsychotic drugs into antifungal agents: Synergistic combinations of azoles and bromperidol derivatives in the treatment of various fungal infections” (Eur J Med Chem, 2017)
